Data: patent US20260053932A1, “COMPOUNDS AND METHODS FOR THE TARGETED DEGRADATION OF ANDROGEN RECEPTOR AND ASSOCIATED METHODS OF USE” (Arvinas Operations, Inc., priority 2020, published 2026)
Read-outs that look alike come from different tables or passages of the source.

System: androgen receptor (AR) in LNCaP and/or VCaP cells
Test: Androgen Receptor ELISA assay (AR degradation)
Assay type: cell-based
Protocol: Androgen Receptor ELISA Assay. […] The protocols used with VCaP cells are described below.
The cells were grown for a minimum of 3 days.
(2)(i) A 10× stock plate in media was made; (ii) 2.5 μL of the 1000× stock was transferred to a new 10× stock plate (use 12 channel pipet, start at A (DMSO control) work thru H. When 247.5 µL of media was added to this plate, it served as a 10× stock; (iii) made media+1 nM R1881 for making 10× stock plate; (iv) added 247.5 μL of media with 1 nM R1881 to each well of the 10× stock plate, mix.
Then 22 μL of 10× stock was added to cells and incubated for 5 hours. […] Media was aspirated, and 100 μL 1× cell lysis buffer/well was added. The cells were placed on a shaker located in a cold room for 10 minutes and shaken at speed 7. The lysate mixture was mix and 20 μL transferred to 100 μl of Diluent in ELISA plate (0.15 μg/ml-[…]). The lysate-diluent mixture was store at 4° C. overnight on a shaker located in a cold room at speed 5 (gentle swirl).
The lysate-diluent mixture was shaken for 30 minutes at 37° C. The mouse AR antibody, anti-mouse antibody, TMB, and STOP solution were allowed to come to room temperature. The 1×ELISA buffer included in kit was made and loaded in reservoir. Media from the plate was discarded, the ELISA plate was tapped hard on paper towel, and washed 4×200 μl ELISA wash buffer using a plate washer for the first three washes and an eight channel aspirator for the fourth wash to more thoroughly aspirate the solution.
Next, 100 μL/well of mouse AR detection Ab was added; the plate was covered and shaken at 37° C. for 1 hour; media was discarded from the plates, the plates tapped on a paper towel and washed four times with 200 μL ELISA wash buffer with a plate washer for the first three washes and an eight channel aspirator for the fourth wash; 100 μL/well of anti-mouse—HRP conjugated Ab (comes with the kit) was added; the plates was cover and shaken at 37° C. for 30 minutes; the TMB reagent was allowed to come to room temperature; the media from the plate was discarded, the plates tapped on paper towel, and washed four times with 200 μL ELISA wash buffer with a plate washer for the first three washes and an eight channel aspirator for the fourth wash; plates were tapped on paper towel; 100 μL TMB was added to each well and the plate shaken for 2 minutes—while watching color. STOP solution (100 μL) was added when light blue color developed.
Data was analyzed and plotted using GraphPad Prism software. Exemplary compounds of Tables 1A, 1B, and 1C were assayed and the data shown below in Tables 2A, 2B, and 2C. DC50 (nM) categories (degradation of AR ELISA in LNCaP and/or VCaP cells) of Tables 2A, 2B, and 2C are as follows: A<1 nM; 1≤B<10 nM; 10≤C<100 nM; D≥100 nM. Dmax (%) categories (degradation of AR ELISA in LNCaP and/or VCaP cells) of Table 2 are as follows: A≥70; 50≤B<70; C<50

[1] = LNCaP and/or VCaP cells, 5 hours incubation, media with R1881, read-out: DC50 Code* (degradation of AR ELISA)
[2] = degradation of AR ELISA in LNCaP and/or VCaP cells, Table 2C, read-out: DC50 Code*

Row | SMILES | DC50 [1] | DC50 [2]
1 | COc1cc(O[C@H]2C[C@H](N(CC3CCN(c4ncc(C(=O)NC5CC6(C5)CN(Cc5cc(C)c(C#N)c(C)c5)C6)cn4)CC3)C(C)C)C2)cc2c1C(=O)N(C1CCC(=O)NC1=O)C2=O (mixture of isomers) [Compound 12, rac-N-(2-(4-cyano-3,5-dimethylbenzyl)-2-azaspiro[3.3]heptan-6-yl)-2-(4-((((1r,3r)-3-((2-(2,6-dioxopiperidin-3-yl)-7-methoxy-1,3-dioxoisoindolin-5-yl)oxy)cyclobutyl) (isopropyl)amino)methyl)piperidin-1-yl)pyrimidine-5-carboxamide] | > 100 nM | 
2 | N#Cc1ccc(O[C@H]2CC[C@H](NC(=O)c3ccc(N4CCC(CN5CCN(c6ccc7c(c6)C(=O)N(C6(F)CCC(=O)NC6=O)C7=O)CC5)CC4)nn3)CC2)cc1Cl (mixture of isomers) [Compound 18, rac-N-((1r,4r)-4-(3-chloro-4-cyanophenoxy)cyclohexyl)-6-(4-((4-(2-(3-fluoro-2,6-dioxopiperidin-3-yl)-1,3-dioxoisoindolin-5-yl)piperazin-1-yl)methyl)piperidin-1-yl)pyridazine-3-carboxamide] | < 1 nM | 
3 | N#Cc1ccc(O[C@H]2CC[C@H](NC(=O)c3ccc(N4CCC(CN[C@H]5C[C@H](Oc6ccc7c(c6)C(=O)N(C6CCC(=O)NC6=O)C7=O)C5)CC4)nn3)CC2)cc1Cl (mixture of isomers) [Compound 51, rac-N-((1r,4r)-4-(3-chloro-4-cyanophenoxy)cyclohexyl)-6-(4-((((1r,3r)-3-((2-(2,6-dioxopiperidin-3-yl)-1,3-dioxoisoindolin-5-yl)oxy)cyclobutyl)amino)methyl)piperidin-1-yl)pyridazine-3-carboxamide] | < 1 nM | 
4 | Cc1cc(O[C@H]2C(C)(C)[C@H](NC(=O)c3cnc(N4CCC(CN(C(C)C)[C@H]5C[C@H](Oc6ccc7c(c6)CN(C6CCC(=O)NC6=O)C7=O)C5)CC4)cn3)C2(C)C)cc(C)c1C#N (mixture of isomers) [compound 126, rac-N-((1r,3r)-3-(4-cyano-3,5-dimethylphenoxy)-2,2,4,4-tetramethylcyclobutyl)-5-(4-((((1r,3r)-3-((2-(2,6-dioxopiperidin-3-yl)-1-oxoisoindolin-5-yl)oxy)cyclobutyl) (isopropyl)amino)methyl)piperidin-1-yl)pyrazine-2-carboxamide] |  | > 100 nM
5 | CC1(C)[C@H](NC(=O)c2ccc(N3CCC(CN4CCN(c5ccc6c(c5)C(=O)N(C5(F)CCC(=O)NC5=O)C6=O)CC4)CC3)cc2)C(C)(C)[C@H]1Oc1ccc(C#N)c(Cl)c1 (mixture of isomers) [compound 129, N-((1r,3r)-3-(3-chloro-4-cyanophenoxy)-2,2,4,4-tetramethylcyclobutyl)-4-(4-((4-(2-(3-fluoro-2,6-dioxopiperidin-3-yl)-1,3-dioxoisoindolin-5-yl)piperazin-1-yl)methyl)piperidin-1-yl)benzamide] |  | 1 to 10 nM
6 | Cc1cc(O[C@H]2C(C)(C)[C@H](NC(=O)c3cnc(N4CCC(CN(C(C)C)[C@H]5C[C@H](Oc6ccc7c(c6)C(=O)N(C6CCC(=O)NC6=O)C7=O)C5)CC4)nc3C)C2(C)C)cc(C)c1C#N (mixture of isomers) [compound 146, rac-N-((1r,3r)-3-(4-cyano-3,5-dimethylphenoxy)-2,2,4,4-tetramethylcyclobutyl)-2-(4-((((1r,3r)-3-((2-(2,6-dioxopiperidin-3-yl)-1,3-dioxoisoindolin-5-yl)oxy)cyclobutyl) (isopropyl)amino)methyl)piperidin-1-yl)-4-methylpyrimidine-5-carboxamide] |  | < 1 nM
7 | [2H]C([2H])([2H])Oc1cc(O[C@H]2C(C)(C)[C@H](NC(=O)c3ccc(N4CCC(CN(C(C)C)[C@H]5C[C@H](Oc6cc(OC([2H])([2H])[2H])c7c(c6)C(=O)N(C6CCC(=O)NC6=O)C7=O)C5)CC4)cc3)C2(C)C)ccc1C#N (mixture of isomers) [compound 149, rac-N-((1r,3r)-3-(4-cyano-3-(methoxy-d3)phenoxy)-2,2,4,4-tetramethylcyclobutyl)-4-(4-((((1r,3r)-3-((2-(2,6-dioxopiperidin-3-yl)-7-(methoxy-d3)-1,3-dioxoisoindolin-5-yl)oxy)cyclobutyl) (isopropyl)amino)methyl)piperidin-1-yl)benzamide] |  | < 1 nM
8 | Cc1cc(O[C@H]2C(C)(C)[C@H](NC(=O)c3ccc(N4CCC(OCCN(C)[C@H]5C[C@H](Oc6ccc7c(c6)C(=O)N(C6CCC(=O)NC6=O)C7=O)C5)CC4)cc3)C2(C)C)cc(C)c1C#N (mixture of isomers) [compound 150, rac-N-((1r,3r)-3-(4-cyano-3,5-dimethylphenoxy)-2,2,4,4-tetramethylcyclobutyl)-4-(4-(2-(((1r,3r)-3-((2-(2,6-dioxopiperidin-3-yl)-1,3-dioxoisoindolin-5-yl)oxy)cyclobutyl) (methyl)amino)ethoxy)piperidin-1-yl)benzamide] |  | < 1 nM
9 | [2H]C([2H])([2H])Oc1cc(O[C@H]2C[C@H](N(CC3CCN(c4ccc(C(=O)N[C@H]5C(C)(C)[C@H](Oc6cc(C)c(C#N)c(C)c6)C5(C)C)cc4)CC3)C(C)C)C2)cc2c1C(=O)N(C1CCC(=O)NC1=O)C2=O (mixture of isomers) [compound 153, rac-N-((1r,3r)-3-(4-cyano-3,5-dimethylphenoxy)-2,2,4,4-tetramethylcyclobutyl)-4-(4-((((1r,3r)-3-((2-(2,6-dioxopiperidin-3-yl)-7-(methoxy-d3)-1,3-dioxoisoindolin-5-yl)oxy)cyclobutyl) (isopropyl)amino)methyl)piperidin-1-yl)benzamide] |  | < 1 nM
10 | Cc1cc(O[C@H]2C(C)(C)[C@H](NC(=O)c3ccc(N4CCC(N(C)[C@H]5C[C@H](Oc6ccc7c(c6)C(=O)N(C6CCC(=O)NC6=O)C7=O)C5)CC4)cc3)C2(C)C)cc(C)c1C#N (mixture of isomers) [compound 157, rac-N-((1r,3r)-3-(4-cyano-3,5-dimethylphenoxy)-2,2,4,4-tetramethylcyclobutyl)-4-(4-(((1r,3r)-3-((2-(2,6-dioxopiperidin-3-yl)-1,3-dioxoisoindolin-5-yl)oxy)cyclobutyl) (methyl)amino)piperidin-1-yl)benzamide] |  | < 1 nM
11 | [2H]C([2H])([2H])Oc1cc(O[C@H]2C[C@H](N(CC3CCN(c4ccc(C(=O)N[C@H]5C(C)(C)[C@H](Oc6ccc(C#N)c(OC)c6)C5(C)C)cc4)CC3)C(C)C)C2)cc2c1C(=O)N(C1CCC(=O)NC1=O)C2=O (mixture of isomers) [compound 159, rac-N-((1r,3r)-3-(4-cyano-3-methoxyphenoxy)-2,2,4,4-tetramethylcyclobutyl)-4-(4-((((1r,3r)-3-((2-(2,6-dioxopiperidin-3-yl)-7-(methoxy-d3)-1,3-dioxoisoindolin-5-yl)oxy)cyclobutyl) (isopropyl)amino)methyl)piperidin-1-yl)benzamide] |  | < 1 nM
12 | CCN(C1CCN(c2ccc(C(=O)N[C@H]3C(C)(C)[C@H](Oc4cc(C)c(C#N)c(C)c4)C3(C)C)cc2)CC1)[C@H]1C[C@H](Oc2cc(OC)c3c(c2)C(=O)N(C2CCC(=O)NC2=O)C3=O)C1 (mixture of isomers) [compound 165, rac-N-((1r,3r)-3-(4-cyano-3,5-dimethylphenoxy)-2,2,4,4-tetramethylcyclobutyl)-4-(4-(((1r,3r)-3-((2-(2,6-dioxopiperidin-3-yl)-7-methoxy-1,3-dioxoisoindolin-5-yl)oxy)cyclobutyl) (ethyl)amino)piperidin-1-yl)benzamide] |  | < 1 nM
13 | CCN(CC1CCN(c2ccc(C(=O)N[C@H]3C(C)(C)[C@H](Oc4cc(C)c(C#N)c(C)c4)C3(C)C)cc2)CC1)[C@H]1C[C@H](Oc2cc(OC)c3c(c2)C(=O)N(C2CCC(=O)NC2=O)C3=O)C1 (mixture of isomers) [compound 169, rac-N-((1r,3r)-3-(4-cyano-3,5-dimethylphenoxy)-2,2,4,4-tetramethylcyclobutyl)-4-(4-((((1r,3r)-3-((2-(2,6-dioxopiperidin-3-yl)-7-methoxy-1,3-dioxoisoindolin-5-yl)oxy)cyclobutyl) (ethyl)amino)methyl)piperidin-1-yl) benzamide] |  | < 1 nM
